“Also recorded” adds a separate entry of the source.
System: CCI brain injury
Experiment: Brain injury assessment after CCI (visual inspection, NeuN cell density, immunofluorescence)
Format: in vivo, rats
Conditions: for cell-to-gray matter (CG) area coefficient, compared to sham: NeuN labeling
Procedure: Quantitative measures of cell density were collected from anti-NeuN immunolabeled subsections from approximately 2-3 mm anterior to bregma. Regions of interest (ROIs) were drawn (blind to experimental condition) around Layers IV-VI in the cortical region adjacent to the injury site in CCI-treated animals or in the equivalent zone (dorsal cortex) in sham animals. An ROI of similar area was also evaluated in a ventral cortical region of the same section. Cell identification was performed using the cell counting module of Keyence BZ-II Analyzer software. […] The CCI-induced reduction in CG coefficient was mitigated by treatment with Compound 1 in the ventral cortex (−3% compared to sham; p=0.09). Although the effect of Compound 1 versus vehicle treatment in the ventral cortex is not statistically significant, it is anticipated that this effect would breach statistical significance in a larger study. No effect of Compound 1 was detected in the dorsal cortical region (−32% compared to sham) immediately adjacent to the injury site. The difference in the observed effect of Compound 1 on the ventral region versus the dorsal region may be a threshold effect related to the degree of injury, which was inversely related to the distance from the injury site. Thus, the damage to the dorsal cortical region could be too severe to be rescued by Compound 1 under these conditions.
Immunofluorescence was performed to evaluate the impact of TBI on several pathways of immune response, and to determine if Compound 1 might be mediating its neuroprotective effects via one or more of those pathways. Semi-quantitative measures of secondary injury responses were examined using immunofluorescent labeling for anti-Rat IgG (an indicator of blood-brain barrier (BBB) permeability), and TNFα (an indicator of neural inflammation). All markers were imaged at 20× magnification in the areas of the cortex surrounding the injury site in adjacent subsections within 300 μm to those used for the NeuN labeling assessments. For each label, a target ROI was outlined within Layers IV-VI adjacent to the injury site (or an equivalent region of dorsal cortex for sham animals), and a reference ROI was collected from the same laminae in ventral cortex. Normalized fluorescence intensity was assessed in each of the two ROIs. For all labels, the ventral cortex reference site was determined not to be different between groups (p>0.5); therefore, the percent target to reference value (IF) was determined.

Which “qualitative visual inspection of whole brains (damage to dorsal-medial cortical tissue)” value (CCI + Compound 1 6 mg/kg) does the source give for CC(C)(C)C(=O)NNC(=O)/C=C\n1cnc(-c2cc(C(F)(F)F)cc(C(F)(F)F)c2)n1 [Compound 1, (Z)-3-(3-(3,5-bis(trifluoromethyl)phenyl)-1H-1,2,4-triazol-1-yl)-N′-pivaloylacrylohydrazide] here?
The value was “damage ranging from moderate to minimal”.

And the “cell-to-gray matter (CG) area coefficient, compared to sham” value (dorsal cortical region adjacent to injury site, CCI control −45%)?
The value was −32%.

What about the “secondary injury responses (TNFα immunopositive cells, anti-Rat IgG immunofluorescence)” value (tissue surrounding the injury site) of the same compound?
Its value is “largely absent; also recorded: reduces secondary injury responses”.

What about the “cell-to-gray matter (CG) area coefficient, compared to sham” value (ventral cortex, p=0.09 vs vehicle, CCI control −30%) of the same compound?
The value was −3%.

From patent US9096543B2, “Nuclear transport modulators and uses thereof” (Karyopharm Therapeutics Inc., priority 2012, dated 2015)
